Structures are written as SMILES. Like-named read-outs stand apart in the source and are kept apart here.

One experiment concerns TNF-α. The experiment is described as follows: Induction of cytokines in vitro: TNF-α release in human whole blood (ELISA). Type of experiment: cell-based. The note with it: read-out: TNFa Stimulation Value. Here is the method: The ability to trigger a stimulatory response in macrophages is likely a necessary characteristic of molecules with imunoadjuvant properties. Therefore, the ability of compounds to stimulate release of TNF-α and other cytokines from immune cells is tested as an indication of their ability to stimulate an immune response, which may result in adjuvant activity.
The most readily available human system to test compound activity on monocytes/macrophages is in whole blood. Various concentrations of compounds of the invention were added as 10×stocks in 50 μl of 5% dextrose followed by 50 μl of 5% dextrose into 400 μl of heparinized whole blood obtained from normal volunteers (18-51 years old; 110-230 lb) into the wells of plastic assay plates, for a total volume of 500 μl/well (final concentration of whole blood was 80%). The 10×stocks were made by dissolving compounds to 1 mM in water and sonicating them for 2 minutes in an ice bath. The compounds were then brought to 10× in 5% dextrose. After a 3-hour incubation with gentle shaking at 37° C. in a 5% CO2 atmosphere, the assay plates were centrifuged at 1000×g for 10 minutes at 4° C. and plasma was drawn off and frozen at −80° C. Plasma samples were analyzed for TNF-α by ELISA (R & D Systems, Minneapolis, Minn.). Each assay point was tested in triplicate.
The stimulatory value is the compound concentration needed to stimulate TNF-α release equal to half the release obtained from the same whole blood sample with 10 ng/ml of LPS.

Experiment [1] has as its system tetanus toxoid-specific IgG. Also noted: species or system Balb/c mice. The settings on record: mouse, in vivo, sc.

`CCCCCCCCCCCCC/C=C/[C@@H](OC(=O)CCCCCCCCCCC)[C@H](COP(=O)(O)OCCNC(=O)NCCOP(=O)(O)OC[C@H](NC(=O)CCCCCCCCCCCCC)[C@@H](/C=C/CCCCCCCCCCCCC)OC(=O)CCCCCCCCCCC)NC(=O)CCCCCCCCCCCCC` (single isomer, unassigned) [ER-805270]: the EC50 in the experiment on TNF-α (compound concentration needed to stimulate TNF-α release equal to half the release obtained with 10 ng/ml LPS, 80% heparinized human whole blood, 3-hour incubation, 37° C.) is above 10000 nM.
As for `CCCCCCCCCCCCCC(=O)N[C@@H](COP(=O)([O-])OCCNC(=O)NCCOP(=O)([O-])OC[C@H](NC(=O)CCCCCCCCCCCCC)[C@H](CCCCCCCCCCC)OC(=O)CCCCCCCCCCC)[C@H](CCCCCCCCCCC)OC(=O)CCCCCCCCCCC.[Na+].[Na+]` [ER-804874], the “Mean concentration of tetanus toxoid-specific IgG (6 mice/group)” value (“Mean concentration … (6 mice/group)” below) in experiment [1] was 5640 µg/mL. For the same compound, in the experiment on TNF-α (Homo sapiens, 3 h), the EC50 was 9 nM.
As to `CCCCCCCCCCCCC/C=C/[C@@H](OC(=O)CCCCCCCCCCC)[C@H](COP(=O)([O-])OCCNC(=O)NCCOP(=O)([O-])OC[C@H](NC(=O)CCCCCCCCCCCCC)[C@@H](/C=C/CCCCCCCCCCCCC)OC(=O)CCCCCCCCCCC)NC(=O)CCCCCCCCCCCCC.[Na+].[Na+]` [ER-805270], the “Mean concentration … (6 mice/group)” value in experiment [1] was 1995 µg/mL.
Consider `CCCCCCCCCCCCC(=O)O[C@H](CCOP(=O)([O-])OCCNC(=O)NCCOP(=O)([O-])OCC[C@@H](OC(=O)CCCCCCCCCCCC)C(CCCCCCCCCC)OC(=O)CCCCCCCCCC)C(CCCCCCCCCC)OC(=O)CCCCCCCCCC.[Na+].[Na+]` (stereo partly shown) [ER-805271], for which, in experiment [1], the “Mean concentration … (6 mice/group)” value was 2010 µg/mL. For the same compound, the EC50 with TNF-α (Homo sapiens, 3 h) worked out at 1600 nM.
The corresponding values for `CCCCCCCCCCCCC(=O)N[C@@H](CCOP(=O)([O-])OCCNC(=O)NCCOP(=O)([O-])OCC[C@H](NC(=O)CCCCCCCCCCCC)C(CCCCCCCCCC)OC(=O)CCCCCCCCCC)C(CCCCCCCCCC)OC(=O)CCCCCCCCCC.[Na+].[Na+]` (stereo partly shown) [ER-805274] are 3218 µg/mL and 14 nM.
As to `CCCCCCCCCCCCCC(=O)NC(CCCCCCCCC)CC[C@@H](COP(=O)(O)OCCNC(=O)NCCOP(=O)(O)OC[C@H](CCC(CCCCCCCCC)NC(=O)CCCCCCCCCCCCC)OC(=O)CCCCCCCCCCCCC)OC(=O)CCCCCCCCCCCCC` (stereo partly shown) [ER-805328], the EC50 with TNF-α (Homo sapiens, 3 h) was found to be 205 nM.
For `CCCCCCCCCCCCCC(=O)N[C@H](CCCC(CCCCCCCC)OC(=O)CCCCCCCCCCCC)COP(=O)(O)OCCNC(=O)NCCOP(=O)(O)OC[C@@H](CCCC(CCCCCCCC)OC(=O)CCCCCCCCCCCC)NC(=O)CCCCCCCCCCCCC` (stereo partly shown) [ER-805517], in the experiment with TNF-α (Homo sapiens, 3 h), the EC50 is 70 nM.

The record behind these values is patent US6521776B2, “Immunological adjuvant compounds compositions and methods of use thereof” (Eisai Company, Limited, priority 2000, dated 2003).
